Each structure is given as a SMILES string.

Among the data in ChEMBL document CHEMBL4842374, “Natural inspired piperine-based sulfonamides and carboxylic acids as carbonic anhydrase inhibitors: Design, synthesis and biological evaluation” (Eur J Med Chem, 2021) are Ki, Activity and IC50 values, retold here.

For one experiment, the target named is Carbonic anhydrase 12 (Homo sapiens, UniProt O43570). The experiment is described as follows: Inhibition of human CA12 measured after 15 mins by stopped flow carbon dioxide anhydrase assay.
Carbonic anhydrase 12, sequence (O43570 whole entry): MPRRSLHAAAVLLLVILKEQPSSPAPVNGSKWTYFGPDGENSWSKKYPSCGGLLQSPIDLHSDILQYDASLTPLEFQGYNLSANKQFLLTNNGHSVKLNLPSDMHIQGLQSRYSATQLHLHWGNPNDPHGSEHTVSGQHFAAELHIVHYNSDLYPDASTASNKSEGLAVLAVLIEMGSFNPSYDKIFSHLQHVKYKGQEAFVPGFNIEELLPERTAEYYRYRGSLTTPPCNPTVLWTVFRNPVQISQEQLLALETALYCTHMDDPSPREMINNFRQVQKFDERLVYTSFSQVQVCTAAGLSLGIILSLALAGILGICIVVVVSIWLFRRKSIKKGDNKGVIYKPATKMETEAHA
Another experiment has as its target Carbonic anhydrase 1 (Homo sapiens, UniProt P00915). The experiment is described as follows: Inhibition of human CA1 measured after 15 mins by stopped flow carbon dioxide anhydrase assay.
Another experiment has as its target Carbonic anhydrase 2 (Homo sapiens, UniProt P00918). In words: Inhibition of human CA2 measured after 15 mins by stopped flow carbon dioxide anhydrase assay.
The target of a further experiment is Carbonic anhydrase 9 (Homo sapiens, UniProt Q16790).
In experiment [1] the test system is MCF7. In words: Induction of apoptosis in human MCF7 cells assessed as early apoptotic cells measured by AnnexinV/FITC staining based flow cytometry assay ( Rvb = 0.52%). Format: functional. In general terms: In flow cytometry, cells or beads pass a laser one at a time.
Experiment [2] relates to MCF7. In words: Induction of apoptosis in human MCF7 cells assessed as necrotic cells measured by AnnexinV/FITC staining based flow cytometry assay ( Rvb = 0.74%). Format: functional.
Experiment [3] has as its system MCF7. The experiment is described as follows: Induction of apoptosis in human MCF7 cells assessed as late apoptotic cells measured by AnnexinV/FITC staining based flow cytometry assay ( Rvb = 0.17%). The experiment is classed as functional.
The subject of experiment [4] is MCF7. The experiment is described as follows: cells. The conditions noted are these: Homo sapiens, MCF7, 48 h. The experiment is classed as functional, cell-based.
Description: Antiproliferative activity against human MCF7 cells assessed as inhibition of cell proliferation measured after 48 hrs by MTT assay

Carbonic anhydrase 1, sequence (P00915 whole entry): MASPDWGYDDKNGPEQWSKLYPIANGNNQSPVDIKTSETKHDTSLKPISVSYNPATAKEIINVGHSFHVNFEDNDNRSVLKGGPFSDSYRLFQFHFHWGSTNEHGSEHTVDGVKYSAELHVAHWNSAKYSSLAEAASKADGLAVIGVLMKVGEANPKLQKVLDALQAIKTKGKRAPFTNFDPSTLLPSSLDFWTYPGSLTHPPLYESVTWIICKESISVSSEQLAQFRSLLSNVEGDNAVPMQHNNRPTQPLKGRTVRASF
Description for Carbonic anhydrase 9: Inhibition of human CA9 measured after 15 mins by stopped flow carbon dioxide anhydrase assay

As for `COC(=O)c1ccc(NC(=O)N/C=C/C=C/c2ccc3c(c2)OCO3)cc1`, the Ki at Carbonic anhydrase 12, on Carbonic anhydrase 1, on Carbonic anhydrase 2 and on Carbonic anhydrase 9 was > 100 µM each time.
As for `O=C(N/C=C/C=C/c1ccc2c(c1)OCO2)Nc1ccc(C(=O)O)cc1`, the inhibitory constant (Ki) (in general, a dissociation constant, usually derived from enzyme kinetics or from competition with a known ligand) at Carbonic anhydrase 1 was > 100 µM; at Carbonic anhydrase 9 it was 16.1 µM.
With `NS(=O)(=O)c1ccc(CCNC(=O)N/C=C/C=C/c2ccc3c(c2)OCO3)cc1`, on Carbonic anhydrase 9, the Ki is 0.0682 µM.
In the case of `O=C(N/C=C/C=C/c1ccc2c(c1)OCO2)Nc1ccccc1C(=O)O`, the Ki at Carbonic anhydrase 1 is > 100 µM; at Carbonic anhydrase 9 it was 30.3 µM.
For `Cc1ccc(NC(=O)N/C=C/C=C/c2ccc3c(c2)OCO3)cc1S(N)(=O)=O`, the inhibition constant (Ki) at Carbonic anhydrase 9 was determined as 0.903 µM.
At Carbonic anhydrase 9, `NS(=O)(=O)c1ccccc1NC(=O)N/C=C/C=C/c1ccc2c(c1)OCO2` yielded an inhibitory constant (Ki) of 0.739 µM.
For the molecule `O=C(N/C=C/C=C/c1ccc2c(c1)OCO2)Nc1ccc(S(=O)(=O)Nc2nccs2)cc1`, the Ki at Carbonic anhydrase 12, at Carbonic anhydrase 1, on Carbonic anhydrase 2 and at Carbonic anhydrase 9 was > 100 µM each time.
Regarding `O=C(N/C=C/C=C/c1ccc2c(c1)OCO2)Nc1cccc(C(=O)O)c1`, the figures for the inhibition constant (Ki) on Carbonic anhydrase 1 and at Carbonic anhydrase 9 were > 100 µM and 24.8 µM, respectively.
Turning to `CC(=O)c1ccc(NC(=O)N/C=C/C=C/c2ccc3c(c2)OCO3)cc1`, the Ki at Carbonic anhydrase 12, at Carbonic anhydrase 1, at Carbonic anhydrase 2 and at Carbonic anhydrase 9 was > 100 µM throughout.
On Carbonic anhydrase 9, `NS(=O)(=O)c1cccc(NC(=O)N/C=C/C=C/c2ccc3c(c2)OCO3)c1` came in with an inhibition constant (Ki) of 0.319 µM.
Regarding `COC(=O)c1cccc(NC(=O)N/C=C/C=C/c2ccc3c(c2)OCO3)c1`, the Ki on Carbonic anhydrase 12, at Carbonic anhydrase 1, on Carbonic anhydrase 2 and on Carbonic anhydrase 9 was > 100 µM in each case.
`NS(=O)(=O)c1ccc(NC(=O)N/C=C/C=C/c2ccc3c(c2)OCO3)cc1` gave an inhibitory constant (Ki) at Carbonic anhydrase 9 of 0.0387 µM. In addition, the Activity with MCF7 [1] is given as 1.91%; in the experiment with MCF7 [2], 14.19%; with MCF7 [3] it was 23.14%. Further, 2.17 µM corresponded to half-maximal inhibition in the experiment with MCF7 [4] (IC50).
